This is an account of results in ChEMBL document CHEMBL6134891, “Thienopyrimidinone Derivatives as a GluN2B/C/D Biased, Positive Allosteric Modulator of the N-Methyl-d-Aspartate Receptor” (J Med Chem, 2025).

In data set [1] the target is Glutamate receptor ionotropic, NMDA 2C (Rattus norvegicus, UniProt P35439+Q00961).
Description: (§1) Positive allosteric modulation of recombinant rat GluN2C receptor expressed in Xenopus oocytes assessed as glutamate/glycine-induced potentiation of current by 2EVC method
Data set [2] has as its target Glutamate receptor ionotropic, NMDA 2D (Rattus norvegicus, UniProt P35439+Q62645).
Description: (§2) Positive allosteric modulation of recombinant rat GluN2D receptor expressed in Xenopus oocytes assessed as glutamate/glycine-induced potentiation of current by 2EVC method
For data set [3], the target named is Glutamate receptor ionotropic, NMDA 2B (Rattus norvegicus, UniProt P35439+Q00960).
Description: (§3) Positive allosteric modulation of recombinant rat GluN2B receptor expressed in Xenopus oocytes assessed as glutamate/glycine-induced potentiation of current by 2EVC method
In data set [4] the target is Glutamate receptor ionotropic, NMDA 2B (Rattus norvegicus, UniProt Q00960). To be noted: oocyte.
Description: as §3
Data set [5] in a line: Kinetic solubility of compound in PBS at pH 7.3 by nephelometry.
The nature of data set [6]: Stability in mouse plasma assessed as half life.
The nature of data set [7]: Efflux ratio of apparent permeability in MDCK-MDR1 cells. To be noted: dog.
The nature of data set [8]: Stability in human plasma assessed as half life.
Data set [9] is described as follows: Apparent permeability in MDCK-MDR1 cells. To be noted: dog.
Data set [10] can be described thus: Stability in rat plasma assessed as half life.
The nature of another data set: in vitro. To be noted: human, liver microsomes.
Data set [11] deals with Glutamate receptor ionotropic, NMDA 2D (Rattus norvegicus, UniProt Q62645). To be noted: oocyte.
Description: as §2
The target of data set [12] is Glutamate receptor ionotropic, NMDA 2C (Rattus norvegicus, UniProt Q00961). To be noted: oocyte.
Description: as §1

SMILES strings stand for the structures. Values after ≈ are worked out from the molar mass of the structure shown.

Sequence of Glutamate receptor ionotropic, NMDA 2D (Rattus norvegicus, UniProt P35439+Q62645) (Q62645 whole entry, one chain of several): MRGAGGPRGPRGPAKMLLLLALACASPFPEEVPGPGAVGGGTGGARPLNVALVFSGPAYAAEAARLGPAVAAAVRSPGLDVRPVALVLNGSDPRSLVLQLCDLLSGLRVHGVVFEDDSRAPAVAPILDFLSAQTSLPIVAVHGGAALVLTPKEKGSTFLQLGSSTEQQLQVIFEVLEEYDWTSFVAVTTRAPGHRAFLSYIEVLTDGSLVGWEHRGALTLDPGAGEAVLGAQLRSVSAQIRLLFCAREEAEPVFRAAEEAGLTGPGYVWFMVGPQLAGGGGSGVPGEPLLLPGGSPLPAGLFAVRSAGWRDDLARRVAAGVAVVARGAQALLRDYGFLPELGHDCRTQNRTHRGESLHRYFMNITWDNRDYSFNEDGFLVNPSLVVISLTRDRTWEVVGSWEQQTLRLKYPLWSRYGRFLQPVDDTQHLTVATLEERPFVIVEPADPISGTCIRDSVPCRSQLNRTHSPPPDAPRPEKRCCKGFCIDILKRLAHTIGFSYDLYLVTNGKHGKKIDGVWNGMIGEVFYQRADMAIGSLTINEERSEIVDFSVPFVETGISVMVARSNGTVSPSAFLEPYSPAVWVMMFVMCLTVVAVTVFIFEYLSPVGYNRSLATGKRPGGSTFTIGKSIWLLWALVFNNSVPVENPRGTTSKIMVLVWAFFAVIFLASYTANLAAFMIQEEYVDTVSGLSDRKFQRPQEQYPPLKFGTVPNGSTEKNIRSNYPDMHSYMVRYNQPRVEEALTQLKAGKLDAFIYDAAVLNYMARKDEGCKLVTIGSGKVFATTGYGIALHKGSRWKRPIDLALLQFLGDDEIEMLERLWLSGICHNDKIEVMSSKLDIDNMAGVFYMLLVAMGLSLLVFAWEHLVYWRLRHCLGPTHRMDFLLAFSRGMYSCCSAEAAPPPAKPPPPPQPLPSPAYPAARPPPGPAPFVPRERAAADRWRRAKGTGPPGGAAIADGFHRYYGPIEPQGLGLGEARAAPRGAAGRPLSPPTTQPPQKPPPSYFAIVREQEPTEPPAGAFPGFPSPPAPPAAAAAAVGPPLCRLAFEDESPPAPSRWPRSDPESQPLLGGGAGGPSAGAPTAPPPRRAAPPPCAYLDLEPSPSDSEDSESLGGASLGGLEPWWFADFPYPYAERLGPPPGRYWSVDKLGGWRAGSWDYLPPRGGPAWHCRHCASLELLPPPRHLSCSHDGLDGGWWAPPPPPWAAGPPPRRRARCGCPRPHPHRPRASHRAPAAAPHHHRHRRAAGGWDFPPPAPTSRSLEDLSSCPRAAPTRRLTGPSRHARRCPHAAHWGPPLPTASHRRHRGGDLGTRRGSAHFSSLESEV
Sequence of Glutamate receptor ionotropic, NMDA 2C (Rattus norvegicus, UniProt P35439+Q00961) (Q00961 whole entry, one chain of several): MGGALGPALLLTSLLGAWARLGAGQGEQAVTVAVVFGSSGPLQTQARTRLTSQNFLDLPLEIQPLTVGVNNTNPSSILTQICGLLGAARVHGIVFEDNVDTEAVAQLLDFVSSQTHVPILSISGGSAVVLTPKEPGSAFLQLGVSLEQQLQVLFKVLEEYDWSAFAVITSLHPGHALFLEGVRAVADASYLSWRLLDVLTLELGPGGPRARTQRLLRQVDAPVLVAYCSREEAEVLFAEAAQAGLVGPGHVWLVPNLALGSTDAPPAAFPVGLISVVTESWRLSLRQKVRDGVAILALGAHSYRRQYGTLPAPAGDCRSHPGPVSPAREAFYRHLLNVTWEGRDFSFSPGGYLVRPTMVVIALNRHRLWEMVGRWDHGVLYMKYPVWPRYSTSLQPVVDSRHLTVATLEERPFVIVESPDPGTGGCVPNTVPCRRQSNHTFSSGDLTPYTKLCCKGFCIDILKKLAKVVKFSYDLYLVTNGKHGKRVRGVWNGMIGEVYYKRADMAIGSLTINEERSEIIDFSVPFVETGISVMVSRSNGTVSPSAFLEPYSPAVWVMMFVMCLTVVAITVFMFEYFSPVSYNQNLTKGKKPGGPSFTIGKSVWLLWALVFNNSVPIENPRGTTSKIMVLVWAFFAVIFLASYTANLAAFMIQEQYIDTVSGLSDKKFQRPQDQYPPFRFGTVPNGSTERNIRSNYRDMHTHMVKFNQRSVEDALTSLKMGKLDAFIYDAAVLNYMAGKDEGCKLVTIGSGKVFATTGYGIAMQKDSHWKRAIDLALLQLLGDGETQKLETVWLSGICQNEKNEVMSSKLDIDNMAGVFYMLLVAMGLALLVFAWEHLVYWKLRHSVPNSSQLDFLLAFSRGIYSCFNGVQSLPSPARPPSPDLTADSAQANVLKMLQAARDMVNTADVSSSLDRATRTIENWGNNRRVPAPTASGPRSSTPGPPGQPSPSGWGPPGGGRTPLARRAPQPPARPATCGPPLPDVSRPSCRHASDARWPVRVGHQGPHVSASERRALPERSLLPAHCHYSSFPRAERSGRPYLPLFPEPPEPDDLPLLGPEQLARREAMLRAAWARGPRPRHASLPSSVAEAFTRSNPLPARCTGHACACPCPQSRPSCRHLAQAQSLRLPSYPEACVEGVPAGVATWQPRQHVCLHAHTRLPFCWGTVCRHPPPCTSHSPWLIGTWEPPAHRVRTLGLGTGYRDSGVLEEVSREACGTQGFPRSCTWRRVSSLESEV
Sequence of Glutamate receptor ionotropic, NMDA 2B (Rattus norvegicus, UniProt P35439+Q00960) (Q00960 whole entry, one chain of several): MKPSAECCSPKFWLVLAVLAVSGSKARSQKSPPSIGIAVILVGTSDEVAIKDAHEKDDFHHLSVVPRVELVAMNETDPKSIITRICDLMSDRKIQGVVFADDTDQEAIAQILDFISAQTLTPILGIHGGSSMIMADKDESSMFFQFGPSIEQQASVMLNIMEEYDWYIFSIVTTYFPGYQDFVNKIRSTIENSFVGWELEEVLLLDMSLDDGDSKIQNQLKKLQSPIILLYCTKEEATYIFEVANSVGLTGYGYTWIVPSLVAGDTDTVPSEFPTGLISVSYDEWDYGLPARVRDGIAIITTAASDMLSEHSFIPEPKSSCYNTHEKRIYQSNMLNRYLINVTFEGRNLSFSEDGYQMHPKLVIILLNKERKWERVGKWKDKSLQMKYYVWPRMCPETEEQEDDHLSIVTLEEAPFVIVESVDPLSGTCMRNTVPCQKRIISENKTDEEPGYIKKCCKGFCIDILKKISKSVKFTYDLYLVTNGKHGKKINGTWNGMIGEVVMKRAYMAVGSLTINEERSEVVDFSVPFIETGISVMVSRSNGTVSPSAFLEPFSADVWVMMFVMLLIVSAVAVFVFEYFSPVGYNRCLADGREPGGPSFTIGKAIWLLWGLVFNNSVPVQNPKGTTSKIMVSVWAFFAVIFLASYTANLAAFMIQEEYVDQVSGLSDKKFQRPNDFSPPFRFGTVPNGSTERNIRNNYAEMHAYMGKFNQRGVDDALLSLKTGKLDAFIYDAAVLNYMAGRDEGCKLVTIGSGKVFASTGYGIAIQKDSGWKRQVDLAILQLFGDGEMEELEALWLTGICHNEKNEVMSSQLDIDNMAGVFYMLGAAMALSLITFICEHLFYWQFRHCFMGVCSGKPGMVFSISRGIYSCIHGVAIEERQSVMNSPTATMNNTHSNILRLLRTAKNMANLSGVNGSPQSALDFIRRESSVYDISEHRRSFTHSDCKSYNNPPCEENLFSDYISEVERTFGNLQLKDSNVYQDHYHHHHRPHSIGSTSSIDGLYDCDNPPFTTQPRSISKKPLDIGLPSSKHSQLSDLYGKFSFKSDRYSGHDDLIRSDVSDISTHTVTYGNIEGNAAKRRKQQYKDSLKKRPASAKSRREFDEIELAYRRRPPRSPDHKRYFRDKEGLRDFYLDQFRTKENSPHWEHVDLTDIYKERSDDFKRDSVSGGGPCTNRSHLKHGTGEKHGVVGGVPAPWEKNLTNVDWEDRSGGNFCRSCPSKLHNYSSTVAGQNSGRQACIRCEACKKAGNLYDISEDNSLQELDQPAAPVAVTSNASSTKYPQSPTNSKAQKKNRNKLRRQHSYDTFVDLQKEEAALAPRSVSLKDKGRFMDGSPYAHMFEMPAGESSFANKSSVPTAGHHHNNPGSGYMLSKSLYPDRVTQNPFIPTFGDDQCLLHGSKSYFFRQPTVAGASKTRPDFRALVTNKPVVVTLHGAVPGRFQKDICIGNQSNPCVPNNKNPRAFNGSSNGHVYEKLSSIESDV
Sequence of Glutamate receptor ionotropic, NMDA 2D (Rattus norvegicus, UniProt Q62645) (Q62645 whole entry): as the sequence (Q62645 whole entry, one chain of several) above
Sequence of Glutamate receptor ionotropic, NMDA 2C (Rattus norvegicus, UniProt Q00961) (Q00961 whole entry): as the sequence (Q00961 whole entry, one chain of several) above
Description for in vitro: Intrinsic clearance in human liver microsomes at 3 uM preincubated for 5 mins followed by NADPH addition measured up to 30 mins by LC-MS/MS analysis

The EC50 is the concentration needed to bring the measured effect to its halfway point. A high value points to a need for much substance. As to `Cc1sc2ncn(CC(=O)N3CC(C)(F)C3)c(=O)c2c1-c1ccc2c(c1)OC(F)(F)O2`, the EC50 in data set [1] is 13 µM; in [2] it was 13 µM; in data set [3], 2.8 µM.

`Cc1sc2ncn(CC(=O)N3CC(C)(F)C3)c(=O)c2c1-c1cc(F)cc(Cl)c1`: the EC50 in data set [1] worked out at 9.4 µM; in data set [2], 7.4 µM; in [3] it was 1.6 µM.

As for `Cc1sc2ncn(CC(=O)N3CCC(C)C3)c(=O)c2c1-c1cccc(Br)c1` (stereo not given), the EC50 in data set [1] was 6.6 µM; in data set [2], 13 µM; in data set [3] it was 2.5 µM.

For `Cc1sc2ncn(CC(=O)N3CC(C)(F)C3)c(=O)c2c1-c1ccc(F)c(Cl)c1`, the results for the EC50 in data set [1], in [2] and in [3] were 1.2 µM, 2.1 µM and 0.7 µM, respectively.

On to `CCC1(F)CN(C(=O)Cn2cnc3sc(C)c(-c4cccc(Br)c4)c3c2=O)C1`, for which the EC50 in data set [1] turned out to be 2.4 µM; in [2], 3.6 µM; in [3], 0.97 µM.

Turning to `CCCC1(F)CN(C(=O)Cn2cnc3sc(C)c(-c4cccc(Br)c4)c3c2=O)C1`, the EC50 is 13 µM in data set [1], 11 µM in data set [2] and “Not_active” in data set [4].

For the compound `CC1(F)CN(C(=O)Cn2cnc3sc(C(F)(F)F)c(-c4ccc(F)c(Br)c4)c3c2=O)C1`, the results for the EC50 in [1], in data set [2] and in [3] were 3.2 µM, 6.1 µM and 2.3 µM, respectively.

Consider `Cc1sc2ncn(CC(=O)N3CC(C)(F)C3)c(=O)c2c1-c1cccc(Br)c1`, for which the results for the EC50 in data set [1], in data set [2] and in data set [3] were 2 µM, 2.8 µM and 0.78 µM, respectively.

As for `Cc1sc2ncn(CC(=O)N3CC(C)(F)C3)c(=O)c2c1-c1cccc(Cl)c1`, the EC50 in [1] was determined as 2.2 µM; in data set [2], 4.9 µM; in [3], 1.2 µM.

`Cc1sc2ncn(CC(=O)N3CC[C@@H](F)C3)c(=O)c2c1-c1cccc(Br)c1` displayed an EC50 in [3] of 14 µM.

Usually solubility (kinetic) stands for solubility judged after dilution from a stock solution rather than from solid. In general, half-life refers to how long it takes for the measured level to halve. In general, efflux ratio refers to the permeability from basolateral to apical divided by that in the opposite direction, in the common usage. Usually Papp stands for a coefficient for how fast a substance crosses the barrier. As a reminder, the microsomal CLint is the capacity of the preparation to metabolise the compound, expressed as a volume cleared per time. As to `CC1(F)CN(C(=O)Cn2cnc3sc(C#N)c(-c4ccc(F)c(Br)c4)c3c2=O)C1`, in data set [5], the kinetic solubility was 45 µM (≈ 21.6 µg/mL). The half-life in [6], in data set [8] and in [10] was more than 4 h in each case. In addition, the efflux ratio in data set [7] was 4.66. The results for the EC50 in [1], in data set [2] and in [3] were 0.94 µM, 0.89 µM and 0.36 µM, respectively. Also, the Papp in [9] was 9.36 ×10⁻⁶ cm/s. This compound gave a microsomal CLint at 0.5 h, 3 µM in the data set “in vitro” of 16 µL/min/mg.

Consider `Cc1sc2ncn(CC(=O)N3CC(C)(F)C3)c(=O)c2c1-c1cccc(C(F)(F)F)c1`, for which the EC50 in data set [1] worked out at 2.2 µM; in [2] it was 3.8 µM; in [3], 1.1 µM.

Turning to `Cc1sc2ncn(CC(=O)N3CC(C)(F)C3)c(=O)c2c1-c1cc(Cl)ccc1F`, the values for the EC50 in [1], in data set [2] and in data set [3] were 3.9 µM, 4.5 µM and 1.5 µM, respectively.

`Cc1sc2ncn(CC(=O)N3CC(C)(F)C3)c(=O)c2c1-c1ccc2ccn(C)c2c1` displayed an EC50 in data set [3] of 10 µM.

Turning to `Cc1sc2ncn(CC(=O)N3CC(C)(C)C3)c(=O)c2c1-c1cccc(Br)c1`, the results for the EC50 in data set [1], in data set [2] and in data set [3] were 5.3 µM, 11 µM and 2.8 µM, respectively.

Consider `Cc1sc2ncn(CC(=O)N3CC(F)(C4CC4)C3)c(=O)c2c1-c1cccc(Br)c1`, for which the EC50 in data set [1] was found to be 3.7 µM; in data set [2], 5.4 µM; in data set [3] it was 2 µM.

For the compound `Cc1sc2ncn(CC(=O)N3CC[C@@H](O)C3)c(=O)c2c1-c1cccc(Br)c1`, the EC50 entry in data set [11], in data set [12] and in [4] was “Not_active” each time.

`Cc1sc2ncn(CC(=O)N3CC(C)(F)C3)c(=O)c2c1-c1ccc(F)c(OC(C)C)c1`: the EC50 was 5.2 µM in data set [1], 5.8 µM in data set [2] and 2 µM in data set [3].

Consider `Cc1sc2ncn(CC(=O)N3CCC(F)(F)C3)c(=O)c2c1-c1cccc(Br)c1`, for which the EC50 was found to be 6.7 µM in data set [1], 11.7 µM in data set [2] and 2.6 µM in data set [3].

`Cc1sc2ncn(CC(=O)N3CCC(C)(F)C3)c(=O)c2c1-c1cccc(Br)c1` (stereo not given): the EC50 in data set [1] came out at 9.1 µM; in data set [2], 13 µM; in [3], 2.9 µM.

In the case of `Cc1sc2ncn(CC(=O)N3CC(C)(F)C3)c(=O)c2c1-c1cccc(OC(F)(F)F)c1`, the EC50 in data set [1] came to 2.6 µM; in [2], 4.2 µM; in [3], 1.1 µM.

On to `Cc1sc2ncn(CC(=O)N3CC(C)(F)C3)c(=O)c2c1-c1ccc2ccccc2c1`, for which the EC50 in data set [1] was determined as 3 µM; in data set [2] it was 6.3 µM; in [3], 2 µM.

Consider `Cc1sc2ncn(CC(=O)N3CC(C)C3)c(=O)c2c1-c1cccc(Br)c1`, for which the EC50 was 12 µM in data set [1] and 7.6 µM in [3].

Consider `Cc1sc2ncn(CC(=O)N3CCC[C@@H]3C)c(=O)c2c1-c1cccc(Br)c1`, for which it took 21 µM to reach a half-maximal effect in data set [3] (EC50).

`Cc1sc2ncn(CC(=O)N3CC(C)(F)C3)c(=O)c2c1-c1ccc(F)c(Br)c1`: in [5], the kinetic solubility amounted to 34 µM (≈ 15.9 µg/mL). Besides, the half-life in data set [6], in data set [8] and in data set [10] was more than 4 h in each case. For the same compound, the efflux ratio in data set [7] came to 1.98. The results for the EC50 in [1], in [2] and in [3] were 0.63 µM, 1.1 µM and 0.33 µM, respectively. In data set [9], the Papp turned out to be 19.6 ×10⁻⁶ cm/s. In addition, the microsomal CLint at 0.5 h, 3 µM in the data set “in vitro” was determined as 29 µL/min/mg.

As for `CC1(F)CN(C(=O)Cn2cnc3scc(-c4ccc(F)c(Br)c4)c3c2=O)C1`, the kinetic solubility in [5] amounted to 33 µM (≈ 15 µg/mL). Further, the half-life in data set [6], in [8] and in [10] was more than 4 h each time. The efflux ratio in data set [7] was 2.04. Also, the figures for the EC50 in data set [1], in data set [2] and in data set [3] were 0.87 µM, 2.1 µM and 0.74 µM, respectively. In addition, in data set [9], the Papp is 16.6 ×10⁻⁶ cm/s. This compound also came in with a microsomal CLint at 0.5 h, 3 µM in the data set “in vitro” of 14 µL/min/mg.

In the case of `CCc1sc2ncn(CC(=O)N3CC(C)(F)C3)c(=O)c2c1-c1ccc(F)c(Br)c1`, the 50% effective concentration (EC50) in data set [1] was 3.14 µM; in [2], 4.7 µM; in [3], 1.8 µM.

As for `Cc1sc2ncn(CC(=O)N3CC(C)(F)C3)c(=O)c2c1-c1ccc(F)c(C(F)(F)F)c1`, the EC50 in data set [1] amounted to 1.6 µM; in [2], 2.4 µM; in data set [3], 0.6 µM.

In the case of `Cc1sc2ncn(CC(=O)N3CC[C@H](F)C3)c(=O)c2c1-c1cccc(Br)c1`, the values for the EC50 in data set [1], in data set [2] and in data set [3] were 12 µM, 25 µM and 15 µM, respectively.

On to `Cc1sc2ncn(CC(=O)N3CC(C)(F)C3)c(=O)c2c1-c1ccc(Cl)c(Cl)c1`, for which the EC50 in data set [1] worked out at 0.86 µM; in data set [2], 1 µM; in data set [3] it was 0.41 µM.

`Cc1sc2ncn(CC(=O)N3CC(C)(F)C3)c(=O)c2c1-c1ccc(F)c(C#N)c1`: the EC50 turned out to be 4.2 µM in data set [1], 4.8 µM in data set [2] and 1.3 µM in data set [3].

For `Cc1sc2ncn(CC(=O)N3CCC3)c(=O)c2c1-c1cccc(Br)c1`, the EC50 worked out at 20 µM in data set [1] and 23 µM in data set [3].

Take `Cc1sc2ncn(CC(=O)N3CC(C)(F)C3)c(=O)c2c1-c1ccc(Cl)c(F)c1`: the EC50 in [1] was found to be 4.5 µM; in data set [2], 5.6 µM; in [3], 1.7 µM.

In the case of `Cc1sc2ncn(CC(=O)N3CC(C)(F)C3)c(=O)c2c1-c1cccc(Cl)c1F`, the EC50 in [1] stood at 5.3 µM; in data set [2], 6.9 µM; in data set [3], 2 µM.
